Source: ChEMBL document CHEMBL1201862, “PubChem BioAssay data set” (2004)
Active and inactive are the calls of the source.

What was measured:
[1] = molecular target: T1, Dual specificity protein phosphatase 6 (Rattus norvegicus, UniProt Q64346); assay: MKP-3 phosphatase inhibitors, primary screen, biochemical, rat enzyme, in vitro (AID 425)
T1 sequence (Q64346 whole entry): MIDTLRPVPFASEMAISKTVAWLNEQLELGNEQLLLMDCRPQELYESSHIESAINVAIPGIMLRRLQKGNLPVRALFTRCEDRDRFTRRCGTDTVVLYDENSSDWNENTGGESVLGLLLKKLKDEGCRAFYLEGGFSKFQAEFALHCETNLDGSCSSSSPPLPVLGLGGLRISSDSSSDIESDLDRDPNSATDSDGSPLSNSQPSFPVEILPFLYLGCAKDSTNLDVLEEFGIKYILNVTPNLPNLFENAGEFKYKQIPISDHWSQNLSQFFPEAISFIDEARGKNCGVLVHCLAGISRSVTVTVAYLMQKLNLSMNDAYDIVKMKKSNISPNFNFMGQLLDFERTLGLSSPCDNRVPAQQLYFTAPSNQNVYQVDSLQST

[2] = molecular target: T2, Dual specificity protein phosphatase 3 (Homo sapiens, UniProt P51452); assay: VHR1 phosphatase inhibitors, biochemical (AID 1878)
[3] = molecular target: T2, Dual specificity protein phosphatase 3; assay: VHR1 phosphatase inhibitors, primary screen, biochemical, absorbance, uHTS (AID 1654)
[4] = molecular target: Sphingosine 1-phosphate receptor 5 (Homo sapiens, UniProt Q9H228); assay: Late stage counterscreen assay for S1P4 antagonists: Fluorescence dose response cell-based screening assay for antagonists of the Sphingosine 1-Phosphate Receptor 5 (S1P5). [Related pubchem assays (depositor defined):AID1510, AID1524, AID1692, AID1853, AID2332, AID489009, AID489017]; format: functional
[5] = molecular target: Sphingosine 1-phosphate receptor 1 (Homo sapiens, UniProt P21453); assay: Late stage counterscreen assay for S1P4 antagonists: Fluorescence dose response cell-based screening assay for antagonists of the Sphingosine 1-Phosphate Receptor 1 (S1P1). [Related pubchem assays (depositor defined):AID1510, AID1524, AID1692, AID1853, AID2332, AID489009, AID489017]; format: functional
[6] = molecular target: Sphingosine 1-phosphate receptor 2 (Homo sapiens, UniProt O95136); assay: Late stage counterscreen assay for S1P4 antagonists: Fluorescence dose response cell-based screening assay for antagonists of the Sphingosine 1-Phosphate Receptor 2 (S1P2). [Related pubchem assays (depositor defined):AID1510, AID1524, AID1692, AID1853, AID2332, AID489009, AID489017]; format: functional
[7] = molecular target: Sphingosine 1-phosphate receptor 3 (Homo sapiens, UniProt Q99500); assay: Late stage counterscreen assay for S1P4 antagonists: Fluorescence dose response cell-based screening assay for antagonists of the Sphingosine 1-Phosphate Receptor 3 (S1P3). [Related pubchem assays (depositor defined):AID1510, AID1524, AID1692, AID1853, AID2332, AID489009, AID489017]; format: functional
Prothrombin = Prothrombin (Homo sapiens, UniProt P00734); assay: Thrombin 1536 HTS Dose Response Confirmation. [Related pubchem assays: 1046 (Thrombin 1536 HTS; hits were confirmed in this assay)]; format: functional
[8] = molecular target: Intestinal-type alkaline phosphatase (Homo sapiens, UniProt P09923); assay: inhibition of human intestinal alkaline phosphatase – biochemical, dose response (AID 488876); format: functional
[9] = molecular target: T3, Calpain-2 catalytic subunit (Sus scrofa, UniProt P43367); assay: pig calpain II inhibitor potency, dose response, biochemical, fluorogenic peptide substrate (AID 1420); format: functional
T3 sequence (P43367 whole entry): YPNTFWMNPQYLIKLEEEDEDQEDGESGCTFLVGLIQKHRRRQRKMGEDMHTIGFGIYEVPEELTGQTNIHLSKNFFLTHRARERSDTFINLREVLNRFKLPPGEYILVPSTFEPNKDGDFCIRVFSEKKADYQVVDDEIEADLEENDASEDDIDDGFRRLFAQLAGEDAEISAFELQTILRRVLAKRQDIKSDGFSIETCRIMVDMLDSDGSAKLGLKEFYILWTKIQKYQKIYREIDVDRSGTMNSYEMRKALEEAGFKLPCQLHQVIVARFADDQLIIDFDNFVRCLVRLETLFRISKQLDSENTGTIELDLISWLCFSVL

[10] = molecular target: Intestinal-type alkaline phosphatase (Mus musculus, UniProt P24822); assay: PubChem AID 488785; format: functional
[11] = molecular target: T4, Alkaline phosphatase, tissue-nonspecific isozyme (Homo sapiens, UniProt P05186); assay: TNAP enzyme inhibition by screening hits, dose response, selectivity assay for mouse IAP inhibitor project, biochemical, human TNAP, uHTS hits (AID 488906); format: functional
T4 sequence (P05186 whole entry): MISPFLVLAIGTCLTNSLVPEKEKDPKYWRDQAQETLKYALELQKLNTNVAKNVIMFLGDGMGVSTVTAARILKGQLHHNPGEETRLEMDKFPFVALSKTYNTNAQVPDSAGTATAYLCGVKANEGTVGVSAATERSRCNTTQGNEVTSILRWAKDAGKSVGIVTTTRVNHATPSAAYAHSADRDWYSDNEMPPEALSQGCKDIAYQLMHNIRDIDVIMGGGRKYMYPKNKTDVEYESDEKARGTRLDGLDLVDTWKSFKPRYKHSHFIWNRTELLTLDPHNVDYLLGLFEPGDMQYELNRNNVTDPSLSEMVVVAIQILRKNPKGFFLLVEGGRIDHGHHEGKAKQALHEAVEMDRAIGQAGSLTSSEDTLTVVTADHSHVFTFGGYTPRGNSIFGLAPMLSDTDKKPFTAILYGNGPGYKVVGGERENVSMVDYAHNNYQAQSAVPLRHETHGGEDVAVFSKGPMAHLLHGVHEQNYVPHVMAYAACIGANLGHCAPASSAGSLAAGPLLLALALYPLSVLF

[12] = molecular target: T5, Tyrosine-protein phosphatase non-receptor type 22 (Homo sapiens, UniProt Q9Y2R2); assay: SAR LYP1 Fluorescent Assay using OMFP substrate for In Vitro dose response studies - Set 3. [Related pubchem assays (depositor defined):AID1779, AID1784, AID2140, AID2686]; format: functional
T5 sequence (Q9Y2R2 whole entry): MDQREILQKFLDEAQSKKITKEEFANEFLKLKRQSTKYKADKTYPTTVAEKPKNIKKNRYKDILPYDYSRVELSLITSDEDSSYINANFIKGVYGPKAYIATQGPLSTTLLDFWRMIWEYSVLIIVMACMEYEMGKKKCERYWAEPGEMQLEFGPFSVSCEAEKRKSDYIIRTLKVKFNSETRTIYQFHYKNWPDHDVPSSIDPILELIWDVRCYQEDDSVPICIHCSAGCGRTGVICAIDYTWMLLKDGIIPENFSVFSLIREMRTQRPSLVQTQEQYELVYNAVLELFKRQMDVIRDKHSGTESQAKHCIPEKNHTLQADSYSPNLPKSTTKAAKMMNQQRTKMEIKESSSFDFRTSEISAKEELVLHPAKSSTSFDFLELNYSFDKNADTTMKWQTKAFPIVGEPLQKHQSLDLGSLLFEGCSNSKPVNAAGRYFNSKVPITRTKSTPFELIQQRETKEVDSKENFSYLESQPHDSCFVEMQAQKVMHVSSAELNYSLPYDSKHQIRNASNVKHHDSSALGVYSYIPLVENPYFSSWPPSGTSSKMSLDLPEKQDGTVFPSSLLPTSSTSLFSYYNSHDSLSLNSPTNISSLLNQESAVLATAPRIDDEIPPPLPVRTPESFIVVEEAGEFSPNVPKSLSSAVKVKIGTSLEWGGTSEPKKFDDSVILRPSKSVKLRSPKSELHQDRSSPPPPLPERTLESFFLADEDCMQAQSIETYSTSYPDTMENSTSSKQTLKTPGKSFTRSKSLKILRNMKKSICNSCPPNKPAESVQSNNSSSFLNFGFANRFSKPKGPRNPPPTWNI

[13] = molecular target: T5, Tyrosine-protein phosphatase non-receptor type 22; assay: SAR LYP1 Fluorescent Assay using OMFP substrate for In Vitro dose response studies - Set 2. [Related pubchem assays (depositor defined):AID1779, AID1784, AID2140, AID449726, AID488869]; format: functional
[14] = molecular target: T6, Tyrosine-protein phosphatase non-receptor type 7 (Homo sapiens, UniProt P35236); assay: HePTP (PTPN7) phosphatase inhibitor potency, SAR follow-up, biochemical, set 2 (AID 449736); format: functional
T6 sequence (P35236 whole entry): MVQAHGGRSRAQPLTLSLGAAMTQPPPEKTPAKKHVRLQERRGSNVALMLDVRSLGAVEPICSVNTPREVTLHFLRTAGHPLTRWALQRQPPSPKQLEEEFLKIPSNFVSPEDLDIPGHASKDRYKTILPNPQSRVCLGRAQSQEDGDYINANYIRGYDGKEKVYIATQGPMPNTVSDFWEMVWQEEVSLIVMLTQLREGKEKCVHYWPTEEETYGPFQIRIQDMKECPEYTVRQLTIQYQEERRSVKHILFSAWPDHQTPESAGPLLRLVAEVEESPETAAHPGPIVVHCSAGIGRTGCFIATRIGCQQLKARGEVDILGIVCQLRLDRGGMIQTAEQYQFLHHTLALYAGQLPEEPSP

[15] = molecular target: T5, Tyrosine-protein phosphatase non-receptor type 22; assay: LYP (PTPN22) phosphatase inhibitor potency, SAR follow-up, biochemical, pCAP fluorogenic substrate, fluorescence, set 3 (AID 449727); format: functional
[16] = molecular target: T7, Carboxy-terminal domain RNA polymerase II polypeptide A small phosphatase 1 (Homo sapiens, UniProt Q9GZU7); assay: inhibitors of CTDSP1, concentration-response testing, biochemical assay, absorbance-based, actives from ultra-high-throughput screening (AID 540297); format: functional
T7 sequence (Q9GZU7 whole entry): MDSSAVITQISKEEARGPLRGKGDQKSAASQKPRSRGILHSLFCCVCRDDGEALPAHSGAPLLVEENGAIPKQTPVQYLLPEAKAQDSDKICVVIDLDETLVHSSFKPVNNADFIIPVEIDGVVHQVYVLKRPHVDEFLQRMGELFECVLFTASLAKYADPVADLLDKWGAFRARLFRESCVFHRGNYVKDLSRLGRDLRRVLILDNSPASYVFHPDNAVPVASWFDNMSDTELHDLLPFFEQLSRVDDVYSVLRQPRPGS

[17] = molecular target: Tyrosine-protein phosphatase non-receptor type 12 (Homo sapiens, UniProt Q05209); assay: SAR Selectivity Analysis of small molecule inhibitors of PEST using pCAP in a fluorescence assay. [Related pubchem assays (depositor defined):AID1779, AID1784, AID2135]; format: functional
[18] = molecular target: T5, Tyrosine-protein phosphatase non-receptor type 22; assay: SAR LYP1 Fluorescent Assay using pCAP substrate for In Vitro dose response studies - Set 2. [Related pubchem assays (depositor defined):AID1779, AID1784, AID2135, AID449727]; format: functional
[19] = molecular target: Lysine-specific demethylase 4C (Homo sapiens, UniProt Q9H3R0); assay: GASC-1 (JMJD2C) histone demethylase inhibitors, dose response, biochemical, DELFIA europium, cherry-picked samples (AID 488835); format: functional
Lysine-specific demethylase 4C, sequence (Q9H3R0 whole entry): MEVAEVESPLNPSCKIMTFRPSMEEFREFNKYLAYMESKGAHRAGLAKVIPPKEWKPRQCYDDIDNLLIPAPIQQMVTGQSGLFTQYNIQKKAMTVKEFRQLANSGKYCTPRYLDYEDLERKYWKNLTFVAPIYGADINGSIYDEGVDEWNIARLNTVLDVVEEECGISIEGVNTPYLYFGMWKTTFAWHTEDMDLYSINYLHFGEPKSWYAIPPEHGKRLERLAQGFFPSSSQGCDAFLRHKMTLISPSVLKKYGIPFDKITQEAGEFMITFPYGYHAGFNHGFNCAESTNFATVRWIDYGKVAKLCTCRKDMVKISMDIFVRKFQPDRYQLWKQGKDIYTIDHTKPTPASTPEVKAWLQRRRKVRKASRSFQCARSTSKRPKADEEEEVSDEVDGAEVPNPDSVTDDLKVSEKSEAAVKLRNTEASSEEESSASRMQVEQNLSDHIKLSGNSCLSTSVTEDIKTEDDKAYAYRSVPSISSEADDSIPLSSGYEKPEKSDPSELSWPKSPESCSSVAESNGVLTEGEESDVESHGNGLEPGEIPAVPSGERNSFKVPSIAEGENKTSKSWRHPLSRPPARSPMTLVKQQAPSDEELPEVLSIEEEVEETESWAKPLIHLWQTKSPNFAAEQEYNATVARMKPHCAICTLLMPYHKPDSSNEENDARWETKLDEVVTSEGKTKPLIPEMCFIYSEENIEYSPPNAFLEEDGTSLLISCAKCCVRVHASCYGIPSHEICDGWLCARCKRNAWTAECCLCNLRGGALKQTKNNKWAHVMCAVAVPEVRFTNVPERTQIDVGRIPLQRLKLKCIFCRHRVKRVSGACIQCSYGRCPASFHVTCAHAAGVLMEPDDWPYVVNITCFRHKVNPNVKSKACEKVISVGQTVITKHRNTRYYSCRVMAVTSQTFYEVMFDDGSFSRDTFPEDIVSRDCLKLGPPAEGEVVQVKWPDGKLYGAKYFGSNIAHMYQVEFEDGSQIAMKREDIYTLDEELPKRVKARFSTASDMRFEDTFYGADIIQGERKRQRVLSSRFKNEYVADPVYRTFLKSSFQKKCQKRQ

T2 sequence (P51452 whole entry): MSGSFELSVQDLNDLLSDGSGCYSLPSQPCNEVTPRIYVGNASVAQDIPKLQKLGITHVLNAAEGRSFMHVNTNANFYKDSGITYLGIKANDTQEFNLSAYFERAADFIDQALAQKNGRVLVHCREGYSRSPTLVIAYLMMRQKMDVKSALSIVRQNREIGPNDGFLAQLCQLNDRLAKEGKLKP
Sphingosine 1-phosphate receptor 5, sequence (Q9H228 whole entry): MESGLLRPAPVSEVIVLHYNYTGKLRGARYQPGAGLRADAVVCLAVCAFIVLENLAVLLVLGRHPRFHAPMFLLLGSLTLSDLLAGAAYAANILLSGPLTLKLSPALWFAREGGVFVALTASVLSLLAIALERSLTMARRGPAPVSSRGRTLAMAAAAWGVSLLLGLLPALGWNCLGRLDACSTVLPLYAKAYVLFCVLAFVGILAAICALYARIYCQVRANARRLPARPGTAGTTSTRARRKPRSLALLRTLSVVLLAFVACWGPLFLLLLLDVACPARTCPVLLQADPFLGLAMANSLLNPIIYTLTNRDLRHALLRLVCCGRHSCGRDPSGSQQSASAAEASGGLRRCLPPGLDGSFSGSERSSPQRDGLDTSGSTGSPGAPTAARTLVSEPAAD
Sphingosine 1-phosphate receptor 2, sequence (O95136 whole entry): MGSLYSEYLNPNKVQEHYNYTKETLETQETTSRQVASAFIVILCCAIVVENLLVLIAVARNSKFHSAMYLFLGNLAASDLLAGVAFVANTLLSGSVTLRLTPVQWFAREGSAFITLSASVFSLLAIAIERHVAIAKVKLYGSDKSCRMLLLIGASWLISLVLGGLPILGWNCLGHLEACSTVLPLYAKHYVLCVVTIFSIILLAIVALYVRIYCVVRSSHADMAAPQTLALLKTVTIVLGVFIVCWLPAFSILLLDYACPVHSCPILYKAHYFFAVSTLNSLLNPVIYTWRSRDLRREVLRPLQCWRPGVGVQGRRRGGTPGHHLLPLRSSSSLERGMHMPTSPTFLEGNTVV
Sphingosine 1-phosphate receptor 1, sequence (P21453 whole entry): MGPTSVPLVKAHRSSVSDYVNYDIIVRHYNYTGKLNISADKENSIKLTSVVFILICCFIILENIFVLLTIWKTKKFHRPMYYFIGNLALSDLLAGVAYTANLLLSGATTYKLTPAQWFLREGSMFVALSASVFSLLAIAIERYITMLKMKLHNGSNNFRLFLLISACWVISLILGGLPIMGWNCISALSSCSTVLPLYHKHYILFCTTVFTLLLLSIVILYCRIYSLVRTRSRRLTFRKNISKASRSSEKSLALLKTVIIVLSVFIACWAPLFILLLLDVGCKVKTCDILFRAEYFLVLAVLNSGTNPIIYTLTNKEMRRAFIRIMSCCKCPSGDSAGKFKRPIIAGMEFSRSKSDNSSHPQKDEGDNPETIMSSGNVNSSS
Intestinal-type alkaline phosphatase (Mus musculus, UniProt P24822), sequence (P24822 whole entry): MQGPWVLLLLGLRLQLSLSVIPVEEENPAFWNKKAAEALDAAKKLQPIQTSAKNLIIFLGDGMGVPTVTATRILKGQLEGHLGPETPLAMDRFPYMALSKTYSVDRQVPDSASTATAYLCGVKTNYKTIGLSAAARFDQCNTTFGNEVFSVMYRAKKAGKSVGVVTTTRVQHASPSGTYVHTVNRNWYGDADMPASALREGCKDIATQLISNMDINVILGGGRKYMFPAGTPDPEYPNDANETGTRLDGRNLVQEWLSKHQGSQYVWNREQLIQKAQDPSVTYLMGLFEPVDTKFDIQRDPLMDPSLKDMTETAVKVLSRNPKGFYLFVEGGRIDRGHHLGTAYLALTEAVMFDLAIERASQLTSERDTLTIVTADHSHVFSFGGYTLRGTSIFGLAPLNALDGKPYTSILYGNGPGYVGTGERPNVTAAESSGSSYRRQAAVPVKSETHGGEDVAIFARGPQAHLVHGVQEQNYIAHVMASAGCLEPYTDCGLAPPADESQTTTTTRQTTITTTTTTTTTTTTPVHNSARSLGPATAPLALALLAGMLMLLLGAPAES
Intestinal-type alkaline phosphatase (Homo sapiens, UniProt P09923), sequence (P09923 whole entry): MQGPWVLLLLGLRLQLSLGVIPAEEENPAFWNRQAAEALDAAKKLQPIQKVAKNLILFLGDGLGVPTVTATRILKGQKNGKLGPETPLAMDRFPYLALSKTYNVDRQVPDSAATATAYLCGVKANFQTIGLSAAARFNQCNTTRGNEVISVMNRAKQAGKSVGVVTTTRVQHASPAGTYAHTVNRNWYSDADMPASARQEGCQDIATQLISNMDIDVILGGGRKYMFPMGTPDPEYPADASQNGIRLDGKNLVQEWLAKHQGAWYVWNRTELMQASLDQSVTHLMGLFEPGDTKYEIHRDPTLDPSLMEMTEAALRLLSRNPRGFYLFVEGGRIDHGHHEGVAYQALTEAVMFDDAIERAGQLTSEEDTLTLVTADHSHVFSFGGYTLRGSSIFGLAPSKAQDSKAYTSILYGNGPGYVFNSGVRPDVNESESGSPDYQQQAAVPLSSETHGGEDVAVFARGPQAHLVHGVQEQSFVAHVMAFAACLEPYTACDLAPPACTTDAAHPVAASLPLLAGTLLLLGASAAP
Tyrosine-protein phosphatase non-receptor type 12, sequence (Q05209 whole entry): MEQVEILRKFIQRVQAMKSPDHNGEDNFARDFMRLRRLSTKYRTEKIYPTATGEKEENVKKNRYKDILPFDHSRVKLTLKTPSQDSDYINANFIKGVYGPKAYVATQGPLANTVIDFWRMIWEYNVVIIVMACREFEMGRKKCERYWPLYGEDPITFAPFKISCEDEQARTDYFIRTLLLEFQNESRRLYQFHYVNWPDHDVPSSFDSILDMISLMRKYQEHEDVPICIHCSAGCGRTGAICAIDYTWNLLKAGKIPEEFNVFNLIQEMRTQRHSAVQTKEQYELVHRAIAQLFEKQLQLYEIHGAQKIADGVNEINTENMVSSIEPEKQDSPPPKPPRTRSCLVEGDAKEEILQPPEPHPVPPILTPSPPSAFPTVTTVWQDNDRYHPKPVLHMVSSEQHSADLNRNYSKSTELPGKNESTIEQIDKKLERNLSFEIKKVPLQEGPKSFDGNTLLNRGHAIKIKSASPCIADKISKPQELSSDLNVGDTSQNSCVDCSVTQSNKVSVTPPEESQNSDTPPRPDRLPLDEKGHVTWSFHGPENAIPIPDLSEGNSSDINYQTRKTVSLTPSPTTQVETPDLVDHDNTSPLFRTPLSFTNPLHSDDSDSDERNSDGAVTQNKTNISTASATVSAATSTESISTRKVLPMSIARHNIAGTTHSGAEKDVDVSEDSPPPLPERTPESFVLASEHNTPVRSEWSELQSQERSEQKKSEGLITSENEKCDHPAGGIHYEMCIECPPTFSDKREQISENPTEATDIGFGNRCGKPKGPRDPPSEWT
Sphingosine 1-phosphate receptor 3, sequence (Q99500 whole entry): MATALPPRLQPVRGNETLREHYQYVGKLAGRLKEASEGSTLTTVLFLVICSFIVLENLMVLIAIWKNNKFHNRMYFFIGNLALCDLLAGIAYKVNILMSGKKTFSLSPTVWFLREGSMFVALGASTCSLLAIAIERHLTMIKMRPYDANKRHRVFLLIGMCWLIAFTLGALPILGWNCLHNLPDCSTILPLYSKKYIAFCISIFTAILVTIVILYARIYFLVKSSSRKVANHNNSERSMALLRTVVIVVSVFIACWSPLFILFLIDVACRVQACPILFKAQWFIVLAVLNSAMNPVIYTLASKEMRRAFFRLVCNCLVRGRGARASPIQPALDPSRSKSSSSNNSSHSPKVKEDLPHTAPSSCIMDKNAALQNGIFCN

Cc1snc2sc(C(=O)c3ccc(F)cc3)c(N)c12
IC50 [1]: > 158 µM (not active) | IC50 [2]: 2.03 µM (active) | IC50 [3]: < 1.23 µM (inactive)

Cc1ccc(C)c(NC(=O)c2ccc(-c3cc(Cl)ccc3Cl)o2)c1
IC50 [4]: > 25 µM (inactive) | IC50 [5]: > 25 µM (inactive) | IC50 [6]: > 25 µM (inactive) | IC50 [7]: > 25 µM (inactive)

COc1cccc(NC(S)=NCCC(c2ccccc2)c2ccccc2)c1
IC50 (Prothrombin): > 50 µM (not active) | IC50 [8]: > 100 µM (inactive) | IC50 [9]: 3.72 µM (not active) | IC50 [10]: 5.12 µM (active) | IC50 [11]: 92.7 µM (active)

N#C/C(=C\c1ccc(OCc2ccc(F)cc2)cc1)C(=O)Nc1cccc(C(=O)O)c1
IC50 [12]: 0.967 µM (active) | IC50 [13]: 5.27 µM (active) | IC50 [14]: 2.03 µM (active) | IC50 [15]: 6.93 µM (active) | IC50 [16]: 4.13 µM (active) | IC50 [17]: 0.916 µM (active) | IC50 [18]: 5.52 µM (active)

O=C(Nc1cc(S(=O)(=O)N2CCOCC2)ccc1N1CCCC1)c1ccc(F)cc1
AC50 [19]: 20.1 µM (active)
